# Test results as given in US20110224291A1, “SKIN EXTERNAL COMPOSITION FOR INHIBITING EPIDERMAL HYPERPROLIFERATION AND ALLEVIATING INFLAMMATORY SKIN DISEASES CONTAINING ORTHODIHYDROXYISOFLAVONE DERIVATIVES” (priority 2008, published 2011).
# How the values were obtained:
# TNF-alpha = assay: Anti-inflammatory effect: TNF-alpha gene expression in LPS-treated HaCaT cells; assay type: cell-based, human; settings: 10 μM pretreatment 2 hours, 1 μg/ml LPS 8 hours, mRNA normalized to GAPDH, FIG. 4
# Experimental: In this Example, human keratinocyte HaCaT cells obtained from the Korean Cell Line Bank (Seoul, Korea) were used. The HaCaT cells were seeded into a DMEM medium containing 10% (v/v) FBS, 100 U/ml penicillin and 100 μg/ml streptomycin and were incubated in an animal cell incubator under conditions of 37° C. and 5% CO2. The HaCaT cells prepared at 1.5×10^6 cells/well were adapted in FBS-free medium for 3 hours. The cells were pretreated with 10 μM of each of 4′,6,7-trihydroxyisoflavone, 3′,4′,7-trihydroxyisoflavone, daidzein and TGZ for 2 hours, 1 μg/ml of lipopolysaccharide (LPS) was added thereto, and then the cells were additionally cultured for 8 hours. Total RNA of the cells was extracted using TRIzol™ (GIBCO BRL, MD, USA) and stored at −80° C. 1 μg of the total RNA was added to 25 μl of a reverse transcription reaction buffer containing 50 mM Tris-HCl (pH 8.3), 75 mM KCl, 3 mM MgCl2, 0.1 M DTT, 10 mM dNTP and 40 U/μl RNase inhibitor. 0.5 μg/μl oligo(dT)16 primers and 200 U SuperScript per Script II reverse transcriptase (GiboBRL) were added thereto, and the total RNA was subjected to a reverse transcription reaction at 42° C. for 1 hour. Then, 2.5 μl of the reverse transcription reaction solution was added to […] of a PCR reaction buffer containing 0.04 U AmpliTaq DNA polymerase (Perkin Elmer, Shelton, Conn.), 50 mM Tris-HCl (pH 8.3), 0.25 mg/ml bovine serum albumin, 3 mM MgCl2, 0.25 mM dNTPs and a 1/50,000 dilution of SYBR green I (Molecular Probes, Eugene, Oreg.), and 10 μM primers were added thereto. Then, a PCR reaction was subjected to PCR amplification. The PCR reaction consisted of 30 cycles of denaturation at 94° C. for 30 sec, annealing at 53° C. for 30 sec and extension at 72° C. for 1 min. The relative mRNA levels were analyzed by measuring the change in fluorescence of SYBR green I using ICycler software. As an internal standard, GAPDH (glyceraldehyde 3-phosphate dehydrogenase) was used to normalize the quantitative expression level of the gene TNF-alpha.
# [1] = tested on: Dickkopf homolog 3 (DKK3); assay: DKK3 expression in keratinocytes by Q-RT-PCR; assay type: cell-based; settings: human neonatal keratinocyte cells, 10 μM, 24 hours, FIG. 2
# Experimental: (§1) Human neonatal keratinocyte cells purchased from Welskin Co (Seoul, Korea) were subcultured in a 25 cm^2 T-flask and incubated in a CO2 incubator under conditions of 37° C. and 5% CO2. Generally, the experiment was carried out after the cells have been subcultured for 2-3 passages. According to the method of Lonza, Inc. (Walkersville, Md., USA), the medium used in the cell culture was prepared by adding a KGM-2 bullet kit (bovine pituitary extract (2 mg), human epidermal growth factor (0.5 ml), insulin (0.5 ml), hydrocortisone (0.5 mg), transferrin (0.5 mg), epinephrine (0.5 mg), and gentamicin sulfate+amphotericin-B (GA-1000, 0.5 ml)) to 500 ml of KBM-2 medium (Clonetics CC-3103). When a confluence of about 50% was shown 2 days after the subculture of the cells, the serum was starved. After 24 hours, the cells were treated with 10 μM of each of a negative control, an Angelica gigas Nakai extract (positive control), daidzein and Examples 1-6 for 24 hours. […]
# (§2) Then, RNA of the cells was isolated using Trizol reagent (Invitrogen, Carlsbad, Calif., USA). The isolated RNA was purified with Qiagen RNeasy kit (Qiagen, Valencia, Calif.), and then the quality of the RNA was confirmed using the Agilent 2100 Bio-Analyzer (Agilent Technologies, Santa Clara, Calif., USA). cDNA was synthesized from the RNA using a superscript reverse transcriptase (RT) kit (Invitrogen, Carlsbad, Calif.) and was quantitatively analyzed through a real time-reverse transcription polymerase chain reaction (Q-RT-PCR). The changes in the expression patterns of genes in the keratinocyte cells were analyzed using the TaqMan®gene expression assay kit (Applied Biosystems, Foster City, Calif.), Dickkopf homolog 3 (DKK3)-HS00247426_m1, and Frizzled homolog 1 (FZD1)-HS00268943_s1 (TagMan primer catalog name), thus confirming the expression levels of DKK3 and FZD1.
# [2] = tested on: Frizzled homolog 1 (FZD1); assay: FZD1 expression in keratinocytes by Q-RT-PCR; assay type: cell-based; settings: human neonatal keratinocyte cells, 10 μM, 24 hours, FIG. 3
# Experimental: as §1, §2
# [3] = tested on: Human keratinocyte HaCaT cells; assay: Keratinocyte division inhibition, BrdU colorimetric ELISA; assay type: cell-based; settings: HaCaT cells, 1, 10 and 50 μM, 48 hours, BrdU analysis, FIG. 1; for keratinocyte division-inhibiting effect: compared with daidzein
# Experimental: Human keratinocyte HaCaT cells were added to 10% fetal bovine serum-containing DMEM medium [Dulbecco's modified Eagle's Medium; Gibco 1210-0038] and cultured in a 24-well plate at a confluence of 70%. The HaCaT cells were treated with 1, 10 and 50 μM of each of 4′,6,7-trihydroxyisoflavone and 3′,4′,7-trihydroxyisoflavone, and after 48 hours, subjected to BrdU analysis. At 12 hours before the BrdU analysis was carried out, BrdU labeling was carried out. The BrdU analysis was carried out using a BrdU colorimetric ELISA kit (Roche) according to the manufacturer's instruction. First, the culture broth was treated with BrdU solution for 12 hours, and then the medium was removed. The cells were fixed, and a peroxidase-conjugated BrdU antibody was added thereto, after which the cells were treated with a substrate solution to induce color development. The degree of color development was measured with an ELISA reader. As positive controls, calcium known to be used for the differentiation of keratinocytes, and troglitazone (TGZ) known to inhibit cell division and induce cell differentiation were used.
SMILES,expression of the TNF-alpha gene (TNF-alpha),expression level of DKK3 [1],expression level of FZD1 [2],concentration dependence of inhibition of keratinocyte division [3],keratinocyte division-inhibiting effect [3]
"O=c1c(-c2ccc(O)cc2)coc2cc(O)ccc12 [daidzein, reference compound]",slightly inhibited,significantly lower than those in the groups treated with the ortho-dihydroxyisoflavone derivatives,significantly lower than those in the groups treated with the ortho-dihydroxyisoflavone derivatives,–,–
"O=c1c(-c2ccc(O)c(O)c2)coc2cc(O)ccc12 [3′,4′,7-trihydroxyisoflavone]",strongly inhibited,effectively promoted the expression,effectively promoted the expression,concentration-dependent manner,significantly superior to that of daidzein
"O=c1c(-c2ccc(O)cc2)coc2cc(O)c(O)cc12 [4′,6,7-trihydroxyisoflavone]",strongly inhibited,effectively promoted the expression,effectively promoted the expression,concentration-dependent manner,significantly superior to that of daidzein
